Experiments:
hEP2 [1] = target: T1, hEP2 (Homo sapiens, UniProt P43116); assay: Competition binding, [3H]PGE2, human EP2 receptors; parameters: expressed in transfected cells; host or cells: HEK 293; conditions: [3H]PGE2, HEK 293 cells stably expressing human EP2; read-out: hEP2 Ki
Description: Competition binding experiments were performed in a medium containing Hank's balanced salt solution, Hepes 20 mM, pH 7.3, membranes (˜60 μg protein) or 2×10^5 cells from HEK 293 cells stably expressing human EP2 receptors, [^3H]PGE2 (10 nM) and various concentrations of test compounds in a total volume of 300 μl. Reaction mixtures were incubated at 23° C. for 60 min, and were filtered over Whatman GF/B filters under vacuum. Filters were washed three times with 5 ml ice-cold buffer containing 50 mM Tris/HCl (pH 7.3). Non-specific binding was estimated in the presence of excess unlabeled PGE2 (10 μM). Binding data fitted to the binding model for a single class of binding sites, using nonlinear regression analysis. IC50 values thus obtained were converted to Ki using the equation of Ki=(IC50/(1+[L]/KD) where [L] represents PGE2 concentration (10 nM) and KD the dissociation constant for [^3H]PGE2 at human EP2 receptors (40 nM).
(§1) HEK-293 cells stably expressing the human or feline FP receptor, or EP1, EP2, or EP4 receptors were washed with TME buffer, scraped from the bottom of the flasks, and homogenized for 30 sec using a Brinkman PT 10/35 polytron. TME buffer was added to achieve a final 40 ml volume in the centrifuge tubes (the composition of TME is 100 mM TRIS base, 20 mM MgCl2, […]; 10N HCl is added to achieve a pH of 7.4).
(§2) The cell homogenate was centrifuged at 19000 r.p.m. for 20 min at 4° C. using a Beckman Ti-60 rotor. The resultant pellet was resuspended in TME buffer to give a final 1 mg/ml protein concentration, as determined by Biorad assay. Radioligand binding competition assays vs. [3H-] 17-phenyl PGF2, (5 nM) were performed in a 100 μl volume for 60 min. Binding reactions were started by adding plasma membrane fraction. The reaction was terminated by the addition of 4 ml ice-cold TRIS-HCl buffer and rapid filtration through glass fiber GF/B filters using a Brandel cell harvester. The filters were washed 3 times with ice-cold buffer and oven dried for one hour.
(§3) [^3H-] PGE2 (specific activity 180 Ci mmol) was used as the radioligand for EP receptors. [^3H] 17-phenyl PGF2, was employed for FP receptor binding studies. Binding studies employing EP1, EP2, EP4 and FP receptors were performed in duplicate in at least three separate experiments. A […] assay volume was used. Incubations were for 60 min at 25° C. and were terminated by the addition of 4 ml of ice-cold 50 mM TRIS-HCl, followed by rapid filtration through Whatman GF/B filters and three additional 4 ml washes in a cell harvester (Brandel). Competition studies were performed using a final concentration of 5 nM [^3H]-PGE2, or 5 nM [^3H] 17-phenyl PGF2, and non-specific binding determined with 10^−5M of unlabeled PGE2, or 17-phenyl PGF2α, according to receptor subtype studied.

hEP2 [2] = target: T1, hEP2; assay: cAMP assay, hEP2; assay type: cell-based
hEP4 [3] = target: T2, hEP4 (Homo sapiens, UniProt P35408); assay: FLIPR calcium signal, hEP4; assay type: cell-based; parameters: expressed in transfected cells; host or cells: HEK-293(EBNA); conditions: HEK-293(EBNA) cells expressing hEP4/Gqs5
Description: (§4) Methods for FLIPR™ Studies
(§5) HEK-293(EBNA) cells, stably expressing one type or subtype of recombinant human prostaglandin receptors (prostaglandin receptors expressed: hDP/Gqs5; hEP1; hEP2/Gqs5; hEP3A/Gqi5; hEP4/Gqs5; hFP; hIP; hTP), were cultured in 100 mm culture dishes in high-glucose DMEM medium containing 10% fetal bovine serum, 2 mM 1-glutamine, 250 μg/ml geneticin (G418) and 200 μg/ml hygromycin B as selection markers, and 100 units/ml penicillin G, 100 μg/ml streptomycin and 0.25 μg/ml amphotericin B.
(§6) Cells were seeded at a density of 5×10^4 cells per well in Biocoat® Poly-D-lysine-coated black-wall, clear-bottom 96-well plates (Becton-Dickinson) and allowed to attach overnight in an incubator at 37° C. Cells were then washed two times with HBSS-HEPES buffer (Hanks Balanced Salt Solution without bicarbonate and phenol red, 20 mM HEPES, pH 7.4) using a Denley Cellwash plate washer (Labsystems). After 45 minutes of dye-loading in the dark, using the calcium-sensitive dye Fluo-4 AM at a final concentration of 2 μM, plates were washed four times with HBSS-HEPES buffer to remove excess dye leaving 100 μl in each well. Plates were re-equilibrated to 37° C. for a few minutes.
(§7) Cells were excited with an Argon laser at 488 nm, and emission was measured through a 510-570 nm bandwidth emission filter (FLIPR™, Molecular Devices, Sunnyvale, Calif.). Drug solution was added in a 50 μl volume to each well to give the desired final concentration. The peak increase in fluorescence intensity was recorded for each well. On each plate, four wells each served as negative (HBSS-HEPES buffer) and positive controls (standard agonists: BW245C (hDP); PGE2 (hEP1; hEP2/Gqs5; hEP3A/Gqi5; hEP4/Gqs5); PGF2α (hFP); carbacyclin (hIP); U-46619 (hTP), depending on receptor). The peak fluorescence change in each drug-containing well was then expressed relative to the controls.
(§8) Compounds were tested in a high-throughput (HTS) or concentration-response (CoRe) format. In the HTS format, forty-four compounds per plate were examined in duplicates at a concentration of 10^−5 M. To generate concentration-response curves, four compounds per plate were tested in duplicates in a concentration range between 10^−5 and 10^−11 M. The duplicate values were averaged. In either, HTS or CoRe format each compound was tested on at least 3 separate plates using cells from different passages to give an n≧3.

hEP2 [4] = target: T1, hEP2; assay: FLIPR calcium signal, hEP2; assay type: cell-based; parameters: expressed in transfected cells; host or cells: HEK-293(EBNA); conditions: HEK-293(EBNA) cells expressing hEP2/Gqs5
Description: as §4, §5, §6, §7, §8

hEP4 [5] = target: T2, hEP4; assay: Radioligand binding, EP4 receptor; parameters: expressed in transfected cells; host or cells: HEK-293; conditions: [3H]PGE2, HEK-293 cells expressing EP4
Description: as §1, §2, §3

T1 sequence (P43116 whole entry): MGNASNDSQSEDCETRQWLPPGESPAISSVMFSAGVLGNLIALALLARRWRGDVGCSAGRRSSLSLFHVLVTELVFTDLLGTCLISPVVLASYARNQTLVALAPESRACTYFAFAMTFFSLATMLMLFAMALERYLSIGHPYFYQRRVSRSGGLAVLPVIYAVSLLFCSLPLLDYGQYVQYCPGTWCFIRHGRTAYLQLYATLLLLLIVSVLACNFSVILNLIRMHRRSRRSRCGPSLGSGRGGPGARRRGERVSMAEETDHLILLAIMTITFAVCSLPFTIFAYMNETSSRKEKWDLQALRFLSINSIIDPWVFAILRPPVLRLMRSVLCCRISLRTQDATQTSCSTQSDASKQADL
T2 sequence (P35408 whole entry): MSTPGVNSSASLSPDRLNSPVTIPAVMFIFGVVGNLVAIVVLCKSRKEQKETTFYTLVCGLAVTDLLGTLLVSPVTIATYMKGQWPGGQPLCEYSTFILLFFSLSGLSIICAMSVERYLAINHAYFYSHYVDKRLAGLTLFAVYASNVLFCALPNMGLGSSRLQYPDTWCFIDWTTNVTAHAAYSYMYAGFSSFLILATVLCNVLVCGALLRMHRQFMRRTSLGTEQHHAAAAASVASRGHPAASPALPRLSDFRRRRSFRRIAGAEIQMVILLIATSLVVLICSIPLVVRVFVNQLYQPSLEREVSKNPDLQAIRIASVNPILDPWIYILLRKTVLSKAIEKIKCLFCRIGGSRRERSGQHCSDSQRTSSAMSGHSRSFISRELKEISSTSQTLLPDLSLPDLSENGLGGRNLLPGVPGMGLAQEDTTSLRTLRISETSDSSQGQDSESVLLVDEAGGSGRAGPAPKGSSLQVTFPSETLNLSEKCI

Ki (hEP2 [1]) [nM]	EC50 (hEP2 [2]) [nM]	EC50 (hEP4 [3]) [nM]	EC50 (hEP2 [4]) [nM]	Ki (hEP4 [5]) [nM]	SMILES
11	0.7	> 10000	10	281	Cc1cc(OC[C@@H]2[C@@H](C/C=C\CCCC(=O)O)[C@H](Cl)C[C@H]2O)cc(C)c1Cl [Example 39, (Z)-7-[(1R,2S,3R,5R)-5-Chloro-2-(4-chloro-3,5-dimethyl-phenoxymethyl)-3-hydroxy-cyclopentyl]-hept-5-enoic acid]
172	2.4	> 10000	51	1100	Cc1ccc(C)c(OC[C@@H]2[C@@H](C/C=C\CCCC(=O)O)[C@H](Cl)C[C@H]2O)c1 [Example 34, (Z)-7-[(1R,2S,3R,5R)-5-Chloro-2-(2,5-dimethyl-phenoxymethyl)-3-hydroxy-cyclopentyl]-hept-5-enoic acid]
274	20	3720	245	1680	COc1cccc(OC[C@@H]2[C@@H](C/C=C\CCCC(=O)O)[C@H](Cl)C[C@H]2O)c1 [Example 28, (Z)-7-[(1R,2S,3R,5R)-5-Chloro-3-hydroxy-2-(3-methoxy-phenoxymethyl)-cyclopentyl]-hept-5-enoic acid]
303	37	449	26	5010	O=C(O)CCC/C=C\C[C@@H]1[C@@H](COc2ccccc2Cl)[C@H](O)C[C@H]1Cl [Example 21, (Z)-7-[(1R,2S,3R,5R)-5-Chloro-2-(2-chloro-phenoxymethyl)-3-hydroxy-cyclopentyl]-hept-5-enoic acid]
50	27	> 10000	618	1100	Cc1ccc(OC[C@@H]2[C@@H](C/C=C\CCCC(=O)O)[C@H](Cl)C[C@H]2O)cc1C [Example 37, (Z)-7-[(1R,2S,3R,5R)-5-Chloro-2-(3,4-dimethyl-phenoxymethyl)-3-hydroxy-cyclopentyl]-hept-5-enoic acid]
43	5	823	18	> 10000	O=C(O)CCC/C=C\C[C@@H]1[C@@H](COc2cccc(Cl)c2)[C@H](O)C[C@H]1Cl [Example 22, (Z)-7-[(1R,2S,3R,5R)-5-Chloro-2-(3-chloro-phenoxymethyl)-3-hydroxy-cyclopentyl]-hept-5-enoic acid]
25	1.5	> 10000	2.3	606	Cc1cc(OC[C@@H]2[C@@H](C/C=C\CCCC(=O)O)[C@H](Cl)C[C@H]2O)cc(C)c1C [Example 38, (Z)-7-[(1R,2S,3R,5R)-5-Chloro-3-hydroxy-2-(3,4,5-trimethyl-phenoxymethyl)-cyclopentyl]-hept-5-enoic acid]

Further lines, the molecule ahead of its results:

SMILES	Ki (hEP2 [1]) [nM]	EC50 (hEP2 [2]) [nM]	EC50 (hEP4 [3]) [nM]	EC50 (hEP2 [4]) [nM]	Ki (hEP4 [5]) [nM]
CC(=O)OCc1cc(Cl)cc(OC[C@@H]2[C@@H](C/C=C\CCCC(=O)O)[C@H](Cl)C[C@H]2O)c1 [Example 64, (Z)-7-[(1R,2S,3R,5R)-2-(3-Acetoxymethyl-5-chloro-phenoxymethyl)-5-chloro-3-hydroxy-cyclopentyl]-hept-5-enoic acid]	65	6.5	7450	1110	381
O=C(O)CCC/C=C\C[C@@H]1[C@@H](COc2cccc(O)c2)[C@H](O)C[C@H]1Cl [Example 30, (Z)-7-[(1R,2S,3R,5R)-5-Chloro-3-hydroxy-2-(3-hydroxy-phenoxymethyl)-cyclopentyl]-hept-5-enoic acid]	603	24	1170	111	5060
CCCC(O)c1cccc(OC[C@@H]2[C@@H](C/C=C\CCCC(=O)O)[C@H](Cl)C[C@H]2O)c1 (stereo partly drawn) [Example 52, (Z)-7-{(1R,2S,3R,5R)-5-Chloro-3-hydroxy-2-[3-(1-hydroxy-butyl)-phenoxymethyl]-cyclopentyl}-hept-5-enoic acid]	951	58	> 10000	234	> 10000
O=C(O)CCC/C=C\C[C@@H]1[C@@H](COc2ccc3ccccc3c2)[C@H](O)C[C@H]1Cl [Example 17, (Z)-7-[(1R,2S,3R,5R)-5-Chloro-3-hydroxy-2-(naphthalen-2-yloxymethyl)-cyclopentyl]-hept-5-enoic acid]	61	27	3420	301	507
O=C(O)CCC/C=C\C[C@@H]1[C@@H](COc2cccc3c2CCCC3O)[C@H](O)C[C@H]1Cl (stereo partly drawn) [Example 60, (Z)-7-[(1R,2S,3R,5R)-5-Chloro-3-hydroxy-2-(5-hydroxy-5,6,7,8-tetrahydro-naphthalen-1-yloxymethyl)-cyclopentyl]-hept-5-enoic acid]	86	1	6970	17	1440
CC(C)c1cccc(OC[C@@H]2[C@@H](C/C=C\CCCC(=O)O)[C@H](Cl)C[C@H]2O)c1 [Example 26, (Z)-7-[(1R,2S,3R,5R)-5-Chloro-3-hydroxy-2-(3-isopropyl-phenoxymethyl)-cyclopentyl]-hept-5-enoic acid]	151	7	6500	41	967
CC(C)(C)c1cccc(OC[C@@H]2[C@@H](C/C=C\CCCC(=O)O)[C@H](Cl)C[C@H]2O)c1 [Example 27, (Z)-7-[(1R,2S,3R,5R)-2-(3-tert-Butyl-phenoxymethyl)-5-chloro-3-hydroxy-cyclopentyl]-hept-5-enoic acid]	497	54	16000	189	908
